Measured values from US20230322722A1, “MODULATORS OF MYC FAMILY PROTO-ONCOGENE PROTEIN” (Nalo Therapeutics, priority 2020, published 2023).

Legend:
[1] = target: T1, MycC protein (Homo sapiens, UniProt P01106); assay: Degradation of MycC protein, Western blot, L-363 cells (Example 160); type: cell-based; conditions: 6 h
T1 construct: either 2×10^6 of L-363 (human leukemia cell line) or SKNBE2 (neuroblastoma cell line) cells; endogenous in cells; host or cells: L-363 / L363 human leukemia cells
Protocol: (§1) In a T150 flask was plated either 2×10^6 of L-363 (human leukemia cell line) or SKNBE2 (neuroblastoma cell line) cells in a total of 30 mL containing Roswell Park Memorial Institute (RPMI) 1640 Medium (Thermo Fisher, Cat. #11875-085), 10% Fetal Bovine Serum (FBS, Thermo Fisher: Cat. #10437-028), 1% Penicillin/streptomycin (Thermo Fisher: Cat. #10378016), and 1% Amophotericin B (Thermo Fisher, Cat. #15290026). The cells were split every 72 hours by reseeding the L-363 or SKNBE2 cells, and the passage number was noted. It is noteworthy that cell cultures that were above 40 passages were not used, and most experiments were done with cells of less than 30 passages.
(§2) In a 6-well cell culture plate, a total of 3 mL of either 1×10^6 cells/mL of L-363 or SKNBE2 cells were seeded, resulting in a total of 3×10^6 cells per well. To each well containing 3 mL of either L-363 or SKNBE2 cell line was added 6 uL of MycN modulating compound (1 mM) and the resulting plate was shaken from left to right, and not swirled. After 6 hours, the cells were placed in a 15 mL falcon tube and spun at 500 Gs at 4° C. in a swinging bucket centrifuge. The medium was then carefully removed without disturbing the pellet. The pellet was then washed with 3 mLs of chilled phosphate buffered saline (PBS) and subjected to the spin cycle. PBS was then removed and the pellet was lysed in 200 uL of radioimmunoprecipitation (RIPA) lysis buffer (Thermo Fisher: Cat. #899000) that is supplemented with protease and phosphatase inhibitors (Thermo Fisher: Cat. #A32959). The cell lysate was then subjected to spinning in a centrifuge for 10 minutes at 13000 G at 4° C. The supernatant was then carefully transferred to a fresh eppendorf tube without disturbing the pellet (˜180 uL). The protein concentration of the cell lysate was then determined by using a bicinchoninic acid (BCA assay) according to manufacturer's protocol (Thermo Fisher: Cat. #23227).
(§3) Cell lysate, approximately 25 ug-30 ug, was loaded per well in a 4-20% polyacrylamide gel (Biorad. Cat. #5671094). After running the dye front off of the gel, the gel was transferred to a nitrocellulose membrane (Biorad: Cat. #1704159) using the transblot turbo system (Biorad: Cat. #1704150) according to manufacturer's protocol. After transferring for 30 minutes, the membrane was blocked with 5% BSA for 1 hour at room temperature. The BSA was then washed off and the primary antibody of choice (1:500) was added, and the membrane was incubated with the primary antibody at 4° C. for overnight. The next morning, the primary antibody was removed and the membrane was washed with 1×-TBST for 10 minutes and repeated three more times. Following the last wash, a secondary antibody (Molecular Devices. Cat. #R8209 or R8208) was added at 1:5000 dilution and incubated for 1 hour at room temperature. Following the incubation with the secondary antibody, the membrane was washed with 1×-TBST for 10 minutes and repeated three more times. Following the last wash, the membrane was washed with de-ionized water twice and dried for at least two hours. Once the membrane is completely dry, the Molecular Devices Spectra Max western system was used to observe the bands. The western image was saved and the band density was measured with ImageJ software.

[2] = target: T2, MycN protein (Homo sapiens, UniProt P04198); assay: Degradation of MycN protein, Western blot, SKNBE2 cells (Example 160); type: cell-based
T2 construct: either 2×10^6 of L-363 (human leukemia cell line) or SKNBE2 (neuroblastoma cell line) cells; endogenous in cells; host or cells: SKNBE2 / SK-N-BE(2) neuroblastoma cells
T2 sequence (P04198 1-464): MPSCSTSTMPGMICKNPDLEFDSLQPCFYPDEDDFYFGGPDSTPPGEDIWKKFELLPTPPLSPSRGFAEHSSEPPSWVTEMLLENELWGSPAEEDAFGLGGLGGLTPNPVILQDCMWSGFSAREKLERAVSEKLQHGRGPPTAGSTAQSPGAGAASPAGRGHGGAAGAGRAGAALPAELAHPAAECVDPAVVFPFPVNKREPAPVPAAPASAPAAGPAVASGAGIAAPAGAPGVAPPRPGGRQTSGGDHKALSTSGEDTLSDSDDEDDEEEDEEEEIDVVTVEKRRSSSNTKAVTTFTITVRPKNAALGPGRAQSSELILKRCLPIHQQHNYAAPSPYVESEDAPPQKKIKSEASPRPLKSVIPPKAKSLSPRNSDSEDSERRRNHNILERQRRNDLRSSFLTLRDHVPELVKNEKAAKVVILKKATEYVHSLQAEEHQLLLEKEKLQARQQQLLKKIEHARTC
Protocol: as §1, §2, §3

T1 sequence (P01106 whole entry): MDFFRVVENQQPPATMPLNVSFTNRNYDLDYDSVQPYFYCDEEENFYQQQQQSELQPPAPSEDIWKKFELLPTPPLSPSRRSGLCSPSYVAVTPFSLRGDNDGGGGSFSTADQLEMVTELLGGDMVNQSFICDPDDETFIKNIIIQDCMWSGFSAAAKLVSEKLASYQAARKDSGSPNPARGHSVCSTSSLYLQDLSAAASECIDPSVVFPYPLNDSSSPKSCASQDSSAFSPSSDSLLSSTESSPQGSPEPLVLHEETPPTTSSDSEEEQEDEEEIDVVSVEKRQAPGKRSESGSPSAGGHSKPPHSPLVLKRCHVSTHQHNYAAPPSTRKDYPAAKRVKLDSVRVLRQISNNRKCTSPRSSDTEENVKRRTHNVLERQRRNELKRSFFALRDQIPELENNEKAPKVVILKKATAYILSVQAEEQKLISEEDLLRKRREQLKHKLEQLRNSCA

Row | SMILES | inhibition at 2 µM [1] | inhibition at 2 µM ([2]; SKNBE2, 6 h) | inhibition at 2 µM ([2]; 6 h) | % Degradation of MycN (SKNBE2) 6 h, 2 μM [2]
1 | CN(c1cc(C2CCCC2)[nH]n1)c1ccnc(N(C)[C@H]2CC[C@H](NC(=O)c3cccc(S(C)(=O)=O)c3)CC2)n1 [Compound 148, N-((1R,4R)-4-((4-((5-cyclopentyl-1H-pyrazol-3-yl)(methyl)amino)pyrimidin-2-yl)(methyl)amino)cyclohexyl)-3-(methylsulfonyl)benzamide] | 20 to 49% | < 20% | – | –
2 | Cn1nnc(CNC(=O)[C@H]2CC[C@H](N(C)c3nccc(Nc4cc(C5CC5)[nH]n4)n3)CC2)n1 [Compound 144, (1R,4R)-4-((4-((5-cyclopropyl-1H-pyrazol-3-yl)amino)pyrimidin-2-yl)(methyl)amino)-N-((2-methyl-2H-tetrazol-5-yl)methyl)cyclohexane-1-carboxamide] | 80 to 100% | 80 to 100% | – | –
3 | CN(c1cc(C2CC2)[nH]n1)c1ccnc(N(C)[C@H]2CC[C@H](NC(=O)c3nnn(C)n3)CC2)n1 [Compound 147, N-((1R,4R)-4-((4-((5-cyclopropyl-1H-pyrazol-3-yl)(methyl)amino)pyrimidin-2-yl)(methyl)amino)cyclohexyl)-2-methyl-2H-tetrazole-5-carboxamide] | 20 to 49% | < 20% | – | –
4 | CN(c1nccc(Nc2cc(C3CC3)[nH]n2)n1)[C@H]1CC[C@H](C(=O)NC2Cc3ccccc3C2)CC1 [Compound 119, (1R,4R)-4-((4-((5-cyclopropyl-1H-pyrazol-3-yl)amino)pyrimidin-2-yl)(methyl)amino)-N-(2,3-dihydro-1H-inden-2-yl)cyclohexane-1-carboxamide] | 80 to 100% | – | 80 to 100% | –
5 | CN(c1nccc(Nc2cc(C3CC3)[nH]n2)n1)C1CCN(CC(=O)NC2Cc3ccc(C#N)cc3C2)CC1 (stereo not drawn) [Compound 2, N-(5-cyano-2,3-dihydro-1H-inden-2-yl)-2-(4-((4-((5-cyclopropyl-1H-pyrazol-3-yl)amino)pyrimidin-2-yl)(methyl)amino)piperidin-1-yl)acetamide] | 80 to 100% | – | 80 to 100% | –
6 | CN(c1nccc(Nc2cc(C3CC3)[nH]n2)n1)[C@H]1CC[C@H](NC(=O)c2ccc(S(C)(=O)=O)cn2)CC1 [Compound 135, N-((1R,4R)-4-((4-((5-cyclopropyl-1H-pyrazol-3-yl)amino)pyrimidin-2-yl)(methyl)amino)cyclohexyl)-5-(methylsulfonyl)picolinamide] | 80 to 100% | < 20% | – | –
7 | CN(c1nccc(Nc2cc(C3CC3)[nH]n2)n1)[C@H]1CC[C@H](NS(=O)(=O)c2cccc(C#N)c2)CC1 [Compound 154, 3-cyano-N-((1R,4R)-4-((4-((5-cyclopropyl-1H-pyrazol-3-yl)amino)pyrimidin-2-yl)(methyl)amino)cyclohexyl)benzenesulfonamide] | 80 to 100% | 50 to 79% | – | –
8 | Cn1cc(C(=O)N[C@H]2CC[C@H](N(C)c3nccc(Nc4cc(C5CC5)[nH]n4)n3)CC2)nn1 [Compound 140, N-((1R,4R)-4-((4-((5-cyclopropyl-1H-pyrazol-3-yl)amino)pyrimidin-2-yl)(methyl)amino)cyclohexyl)-1-methyl-1H-1,2,3-triazole-4-carboxamide] | 80 to 100% | 80 to 100% | – | –
9 | CN(c1nccc(Nc2cc(C3CC3)[nH]n2)n1)[C@H]1CC[C@H](NC(=O)Cc2cccc(C#N)n2)CC1 [Compound 125, 2-(6-cyanopyridin-2-yl)-N-((1R,4R)-4-((4-((5-cyclopropyl-1H-pyrazol-3-yl)amino)pyrimidin-2-yl)(methyl)amino)cyclohexyl)acetamide] | 80 to 100% | 80 to 100% | – | –
10 | Cn1nnc2ccc(C(=O)N[C@H]3CC[C@H](N(C)c4nccc(Nc5cc(C6CC6)[nH]n5)n4)CC3)cc21 [Compound 151, N-((1R,4R)-4-((4-((5-cyclopropyl-1H-pyrazol-3-yl)amino)pyrimidin-2-yl)(methyl)amino)cyclohexyl)-1-methyl-1H-benzo[d][1,2,3]triazole-6-carboxamide] | 80 to 100% | 80 to 100% | – | –
11 | Cn1ncc2cc(C(=O)N[C@H]3CC[C@H](N(C)c4nccc(Nc5cc(C6CC6)[nH]n5)n4)CC3)ccc21 [Compound 118, N-((1R,4R)-4-((4-((5-cyclopropyl-1H-pyrazol-3-yl)amino)pyrimidin-2-yl)(methyl)amino)cyclohexyl)-1-methyl-1H-indazole-5-carboxamide] | 80 to 100% | 50 to 79% | – | –
12 | CN(c1nccc(Nc2cc(C3CC3)[nH]n2)n1)C1CCC(CC(=O)Nc2cn(C3COC3)cn2)CC1 [Compound 133, 2-((1R,4R)-4-((4-((5-cyclopropyl-1H-pyrazol-3-yl)amino)pyrimidin-2-yl)(methyl)amino)cyclohexyl)-N-(1-(oxetan-3-yl)-1H-imidazol-4-yl)acetamide] | 80 to 100% | 80 to 100% | – | –
13 | CN(c1nccc(Nc2cc(C3CC3)[nH]n2)n1)[C@H]1CC[C@H](NC(=O)c2cn(CC3(C)COC3)nn2)CC1 [Compound 150, N-((1R,4R)-4-((4-((5-cyclopropyl-1H-pyrazol-3-yl)amino)pyrimidin-2-yl)(methyl)amino)cyclohexyl)-1-((3-methyloxetan-3-yl)methyl)-1H-1,2,3-triazole-4-carboxamide] | 80 to 100% | 80 to 100% | – | –
14 | CN(c1nccc(Nc2cc(C3CC3)[nH]n2)n1)[C@H]1CC[C@H](NC(=O)C2CCCC(C(F)(F)F)C2)CC1 (stereo partly drawn) [113 F1] | 50 to 79% | – | – | * (degradation <20%)
15 | CN(c1nccc(Nc2cc(C3CC3)[nH]n2)n1)[C@H]1CC[C@H](NS(=O)(=O)c2cccc(S(C)(=O)=O)c2)CC1 [Compound 155, N-((1R,4R)-4-((4-((5-cyclopropyl-1H-pyrazol-3-yl)amino)pyrimidin-2-yl)(methyl)amino)cyclohexyl)-3-(methylsulfonyl)benzenesulfonamide] | 80 to 100% | 80 to 100% | – | –
16 | CN(c1nccc(Nc2cc(C3CC3)[nH]n2)n1)[C@H]1CC[C@H](NC(=O)c2cccc(C#N)c2)CC1 [Compound 136, 3-cyano-N-((1R,4R)-4-((4-((5-cyclopropyl-1H-pyrazol-3-yl)amino)pyrimidin-2-yl)(methyl)amino)cyclohexyl)benzamide] | 80 to 100% | – | 50 to 79% | –
17 | CN(c1nccc(Nc2cc(C3CC3)[nH]n2)n1)[C@H]1CC[C@H](NC(=O)N2CCn3nc(C(F)(F)F)nc3C2)CC1 [Compound 14, N-((1R,4R)-4-((4-((5-cyclopropyl-1H-pyrazol-3-yl)amino)pyrimidin-2-yl)(methyl)amino)cyclohexyl)-2-(trifluoromethyl)-5,6-dihydro-[1,2,4]triazolo[1,5-a]pyrazine-7(8H)-carboxamide] | 80 to 100% | 80 to 100% | – | –
18 | CN(c1nccc(Nc2cc(C3CC3)[nH]n2)n1)[C@H]1CC[C@H](NS(=O)(=O)c2ccc(C#N)cn2)CC1 [Compound 156, 5-cyano-N-((1R,4R)-4-((4-((5-cyclopropyl-1H-pyrazol-3-yl)amino)pyrimidin-2-yl)(methyl)amino)cyclohexyl)pyridine-2-sulfonamide] | 80 to 100% | – | 50 to 79% | –
